Values quoted from earlier work, collected in US20190300958A1, “GENETIC POLYMORPHISMS ASSOCIATED WITH VENOUS THROMBOSIS AND STATIN RESPONSE, METHODS OF DETECTION AND USES THEREOF” (Celera Corporation, priority 2010, published 2019).

What was measured:
myocyte cultures = details: animal models and myocyte cultures, compared to lipophilic statins
[1] = test system: major cardiovascular events; details: study of 17,802 individuals

myopathic potential (myocyte cultures)	Structure (SMILES)	incidence of major cardiovascular events [1]
low myopathic potential	CC[C@H](C)C(=O)O[C@H]1C[C@H](O)C=C2C=C[C@H](C)[C@H](CC[C@@H](O)C[C@@H](O)CC(=O)O)[C@H]21 [Pravastatin, pravastatin]	–
–	CC(C)c1nc(N(C)S(C)(=O)=O)nc(-c2ccc(F)cc2)c1/C=C/[C@@H](O)C[C@@H](O)CC(=O)O [rosuvastatin]	significantly reduced
